# Results taken from US20200147233A1, “METHOD FOR KILLING TUMOR CELLS AND COMPOSITION USED THEREFOR” (PhotoQ3 Inc., priority 2018, published 2020).
# Columns and labels:
# SAS cells = test: Cytotoxicity of AlPcS2a itself (photosensitizer tolerance); assay type: cell-based; settings: AlPcS2a alone with light
# Procedure: For the purpose of increasing IT-Robo 1 internalization efficiency, the present inventors have used AlPcS2a, which forms reactive oxygen species as a result of light irradiation and induces destruction of endosome. At first, the cytotoxicity of AlPcS2a itself was examined, and the optimal concentration to various cells was then determined.
# [1] = tested on: HSQ-89 cell line xenograft; test: Antitumor effects of combined use of IT-Robo1 and PCI on HSQ-89 cell line xenograft mice; assay type: in vivo
# Procedure: A supernatant was aspirated from a 10 cmφ dish, in which the HSQ-89 cell line was cultured, and was then washed with D-PBS (Dulbecco's phosphate buffer). Thereafter, 1 ml of 2.5 g/l trypsin/1 mM EDTA solution was added to the resultant, and the obtained mixture was then left at rest for several minutes in a CO2 incubator. After confirming that the cells were peeled from the bottom surface of the dish, 9 ml of the culture solution was added, and centrifugation was then performed at 1,000 rpm at 4° C. for 5 minutes. After that, a supernatant was aspirated, 10 ml of PBS was then added thereto, and the obtained mixture was then centrifuged at 1,000 rpm at 4° C. for 5 minutes. Thereafter, a supernatant was aspirated, 10 ml of PBS was added thereto, and the number of cells was then counted. Again, 10 ml of PBS was added to the cells, and the obtained mixture was then centrifuged at 1,000 rpm at 4° C. for 5 minutes. Thereafter, a supernatant was aspirated, and PBS was added thereto to a cell density of 2×10^7 cell/ml. Basement Membrane Matrix Gel (Corning, N.Y.) that had been cooled on ice was added in an equal amount, and 2×10^6 cells/200 μl were then collected using a 23G needle and a 1-ml syringe that had been cooled on ice. Subsequently, the collected cells were subcutaneously administered (SC) to the right shoulder of 6-weel-old male BALB/cSlc-nu/nu mice to produce xenograft mice (cancer-bearing mice). The size of a tumor was calculated according to the following equation:
# Tumor size=π/6×Height (mm)×Width (mm)×Depth (mm) […]
# With reference to “Guidelines for Proper Conduct of Animal Experiments (2006)” established by Science Council of Japan, a tumor with a size of 1,000 mm^3 or more, or a drastic reduction in body weight (a reduction of 25% or more of body weight for a week) was set at endpoint, and the mice were euthanized by cervical dislocation. The measurement of a tumor size and evaluation of the body weight were carried out over time, and at the endpoint, the size and weight of the tumor and the body weight were evaluated.
substance,measurement,setting,value
aluminum phthalocyanine disulfonic acid [AlPcS2a],sensitivity of cells to photosensitizer treatment,SAS cells,weak to the treatment with a photosensitizer
same,ulcer and crust formation at irradiated site,[1]; about two days after the irradiation,an ulcer was formed at the cancer protrusion site
same,edema at irradiated site,"[1]; after local irradiation with 650 nm, for several days from the next day, gradually reduced",edema was found at the irradiated sites and the surrounding portions thereof
same,time until crust fell off after crust formation,"[1]; mouse, in vivo",10 days
